How the values were obtained:
[1] = tested on: A549; experiment: Cytotoxicity assay by the CTG method, A549; format: cell-based; settings: Homo sapiens, A549, Lung cancer, 72 h
Protocol: (§1) The corresponding cells were harvested from flask into cell culture medium and the cell number were counted. The cells were diluted with culture medium to the desired density and 40 μL of cell suspension was added into each well of 384-well cell culture plate as designated. The plates were covered with lid and placed in room temperature for 30 minutes without shaking and then were transferred plates into 37° C. 5% CO2 incubator overnight for cell attachment.
(§2) Compound preparation and treatment: Test compounds were received or dissolved at 30 mM stock solution and control compound Staurosporine was stored as 10 mM and 1 mM concentration. 45 uL of stock solution was transferred to a 384 pp-plate. 3 fold, 10-point dilution were performed via transferring 15 uL compound into 30 μL DMSO by using TECAN (EVO200) liquid handler. The plates were spun at room temperature at 1,000 RPM for 1 minute and shaken at a plate shaker for 2 minutes. […]
(§3) The plate from incubators were placed and equilibrated at room temperature for 15 minutes. […] 40 μL of CellTiter-Glo reagent were transferred into each well to be detected (at 1:1 to culture medium). Then the plates were placed at room temperature for 30 min followed by reading on EnSpire.
(§4) The inhibition activity was calculated following the formula below: […]
(§5) The IC50 were calculated by fitting the Curve using Xlfit (v5.3.1.3): […]

[2] = tested on: MDA-MB-468 cells (human breast cancer) implanted in BALB/c-nu mice; experiment: In vivo xenograft study, MDA-MB-468, tumor sizes; settings: MDA-MB-468 xenograft in BALB/c-nu mice, FIGS. 2 and 4
Protocol: (§6) MDA-MB-468 cells (human breast cancer) in its log growth phase were implanted in BALB/c-nu mice. When the tumor volume was approximately 50-150 mm^3, the mice were randomized into four groups, each include 8 mice. The four groups were treated with vehicle, Ref. 1, 4f, and Ref. 2, respectively, and the tumor sizes were measured two to three times each week and the mice were also weighted.

[3] = tested on: Calu-6; experiment: Cytotoxicity assay by the CTG method, Calu-6; format: cell-based; settings: Homo sapiens, Calu-6, Lung cancer, 72 h
Protocol: as §1, §2, §3, §4, §5

[4] = tested on: MOLT4; experiment: Cytotoxicity assay by the CTG method, MOLT4; format: cell-based; settings: Homo sapiens, MOLT-4, MOLT4, Leukemia, 72 h
Protocol: as §1, §2, §3, §4, §5

[5] = tested on: MDA-MB-453; experiment: Cytotoxicity assay by the CTG method, MDA-MB-453; format: cell-based; settings: Homo sapiens, MDA-MB-453, Breast cancer, 72 h
Protocol: as §1, §2, §3, §4, §5

[6] = tested on: MDA-MB-468; experiment: Cell culture and cytotoxicity assay (CTG), MDA-MB-468; format: cell-based, human
Protocol: (§7) The assayed compounds each was dissolved in DMSO with a final concentration of 10 mM or 40 mM and stored at −20° C. Tumor cell lines A549 (7,000 cells/well), BT474 (12,000 cells/well), MDA-MB-468 (12,000 cells/well), and HCC1937 (6,000 cells/well) were seeded on 96-well plates. And the cells were pre-incubated at 37° C./5% CO2 for 24 hours. The cells were exposed to different concentrations of the assay compounds (from 400 μM to 782 nM, from 200 μM to 391 nM, from 100 μM to 196 nM, and from 50 μM to 98 nM) for the following time:
(§8) After incubation, 100 μL from each well was discarded and CTG base (Proega, G7571, 50 μL) was added and the mixture was agitated for 2 minutes. The mixtures were stored in a dark room for 10 minutes and the viability was analyzed with Multiskan microplate reader.

[7] = tested on: MDA-MB-468 cell line; experiment: Anti-tumor activity against MDA-MB-468 cell line (CCK-8 test); format: cell-based; settings: Homo sapiens, MDA-MB-468, 72 h
Protocol: A cryo tube was removed from liquid nitrogen. As quickly as possible, the cells were thawed by placing the vial in a 37° C. water bath and gently shaking the vials. The cells were transferred to medium tube, which containing 5 mL medium, and were centrifuged at 1000 rpm for 6 min. The supernatant containing dead cells and cell debris was discarded. 1 mL of pre-warmed medium with 10% FBS was add and the solution was re-suspended. The plate was placed in 37° C. and 5% CO2 incubator. The medium was changed next day.
Cells in logarithmic growth stage were taken and culture medium was discarded. 1 mL 0.25% trypsin solution was added for twice. The trypsin solution was removed and the 0.5 ml 0.25% trypsin solution was added to the cell flask. The plate was placed in 37° C. and 5% CO2 incubator for a few minutes until the cells recovered. 1 mL medium was added to stop digestion. The liquid was transferred by pipette for experiment.
the cells were suspended and the medium was discarded. 1 mL 0.25% trypsin solution was added for twice and the trypsin digestion was centrifuged. The cells were suspended with the culture medium, count and adjusted to the appropriate concentration.
The cell suspension was added to the 96-well plate with a volume of 100 uL per well, as shown in Tab. 5, and was placed in 37° C., 5% CO2 incubator overnight.
Preparation of Compounds Working Solution.
The test compounds were dissolved in DMSO at 10 mM with sterile filter (0.22 um, nelon, JET). After filtering, the solution were continuously diluted by three times with DMSO. A total of six concentration were prepared, as shown below.
6 uL compound solution was added to 594 uL medium and the solution was added to 96-well plate as shown and cultured for 72 h in CO2 incubator.
A CCK-8 solution was prepared according to the instructions and the 96-well plate was taken out and the original medium discarded. 100 uL cck-8 solution was added to each well in the 96-well plate. Photoabsorption data were read by TECAN enzyme marker after a period of time.
IC (%)=[Ac-As]/[Ac-Ab]*100% • As: Experimental well (containing culture medium, cell, CCK-8 and compound); • Ac: Controlled well (containing culture medium, cell and CCK-8); • Ab: Blank well (Only containing medium and CCK-8).

[8] = In vivo mouse model, MDA-MB-453, mice weights; settings: MDA-MB-453 mouse model
Excerpt: MDA-MB-453 cells (human breast cancer) were also studied in a mouse model. […] FIG. 7.

[9] = In vivo xenograft study, MDA-MB-468, mice weights; settings: MDA-MB-468 xenograft in BALB/c-nu mice, FIGS. 3 and 5
Protocol: as §6

[10] = tested on: HCC1937; experiment: Cell culture and cytotoxicity assay (CTG), HCC1937; format: cell-based; settings: Homo sapiens, HCC1937, exposure 72 hours
Protocol: as §7, §8

[11] = tested on: HL-60; experiment: Cytotoxicity assay by the CTG method, HL-60; format: cell-based; settings: Homo sapiens, HL-60, Leukemia, 72 h
Protocol: as §1, §2, §3, §4, §5

IC50 [7]: 0.912 µM
weight changes ([8]; FIG. 7, 50 mg/Kg): no difference in weight changes
weight changes ([8]; FIG. 7, 100 mg/Kg): no difference in weight changes
weight changes of mice [9]: no significant weight changes
SMILES: Cc1ccc(S(=O)(=O)Nc2nc3ccccc3nc2Nc2ccc3nsnc3c2)cc1F [Compound 4f, N-[3-(benzo[1,2,5]thiadiazol-5-ylamino)-quinoxalin-2-yl]-3-fluoro-4-methyl-benzenesulfonamide]
IC50 [1]: 8.33 µM
anticancer activity (tumor sizes) versus vehicle [2]: significant anticancer activities
IC50 [3]: 4.89 µM
IC50 [4]: 4.72 µM
IC50 [5]: 1.5 µM
IC50 ([6]; Homo sapiens, MDA-MB-468, exposure 72 hours, CTG): 781 to 1560 nM
anticancer activity compared with known compounds (FIG. 1) ([6]; MDA-MB-468 cytotoxicity, versus Ref. 1, Ref. 3, XL147-A, BEZ235): much better anticancer activity than any of the known compounds
IC50 [10]: 37900 nM
IC50 [11]: 7.61 µM

From US20200223839A1, “FLUORO-CONTAINING COMPOUNDS, USE AND PREPARATION THEREOF” (JIANGSU YINGKEBEITA YIYAOKEJI CO. LTD, priority 2017, published 2020)
